Patent US12077503B2, “Substituted cyclic amides and their use as herbicides” (FMC CORPORATION, priority 2015, dated 2024)

Tests used:
Assay type in all cases: in vivo
[1] = tested on: corn (Zea mays); assay: Test A postemergence; conditions: Zea mays, post-emergence, 240 h, 125 g ai/ha, Postemergence; visual injury after approximately 10 d; 0 to 100 scale where 0 is no effect and 100 is complete control
In short: (§1)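 Seeded soil received test chemicals as a preemergence directed spray, and seedlings at one to two leaves, 2–10 cm tall, received them postemergence, in a non-phytotoxic, surfactant-containing solvent mixture. Pots were held in a greenhouse for approximately 10 d, then rated for injury from 0, no effect, to 100, complete control.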

[2] = tested on: Galium (catchweed bedstraw, Galium aparine); assay: Test A postemergence; conditions: Galium, post-emergence, 240 h, 125 g ai/ha, Postemergence; visual injury after approximately 10 d; 0 to 100 scale where 0 is no effect and 100 is complete control; read-out: Plant response rating, Galium
In short: as §1

[3] = tested on: barnyardgrass (Echinochloa crus-galli); assay: Test A postemergence; conditions: Echinochloa crus-galli, post-emergence, 240 h, 125 g ai/ha, Postemergence; visual injury after approximately 10 d; 0 to 100 scale where 0 is no effect and 100 is complete control; read-out: Plant response rating, Barnyardgrass
In short: as §1

[4] = tested on: ragweed (common ragweed, Ambrosia elatior); assay: Test A postemergence; conditions: Ambrosia artemisiifolia, post-emergence, 240 h, 125 g ai/ha, Postemergence; visual injury after approximately 10 d; 0 to 100 scale where 0 is no effect and 100 is complete control; read-out: Plant response rating, Ragweed
In short: as §1

[5] = tested on: Kochia (Kochia scoparia); assay: Test A postemergence; conditions: Bassia scoparia, post-emergence, 240 h, 125 g ai/ha, Postemergence; visual injury after approximately 10 d; 0 to 100 scale where 0 is no effect and 100 is complete control; read-out: Plant response rating, Kochia
In short: as §1

[6] = tested on: ryegrass, Italian (Italian ryegrass, Lolium multiflorum); assay: Test A postemergence; conditions: Lolium multiflorum, post-emergence, 240 h, 125 g ai/ha, Postemergence; visual injury after approximately 10 d; 0 to 100 scale where 0 is no effect and 100 is complete control; read-out: Plant response rating, Ryegrass, Italian
In short: as §1

[7] = tested on: blackgrass (Alopecurus myosuroides); assay: Test A postemergence; conditions: Alopecurus myosuroides, post-emergence, 240 h, 125 g ai/ha, Postemergence; visual injury after approximately 10 d; 0 to 100 scale where 0 is no effect and 100 is complete control; read-out: Plant response rating, Blackgrass
In short: as §1

[8] = tested on: pigweed (Amaranthus retroflexus); assay: Test A postemergence; conditions: Amaranthus retroflexus, post-emergence, 240 h, 125 g ai/ha, Postemergence; visual injury after approximately 10 d; 0 to 100 scale where 0 is no effect and 100 is complete control; read-out: Plant response rating, Pigweed
In short: as §1

[9] = tested on: wheat (Triticum aestivum); assay: Test A postemergence; conditions: Triticum aestivum, post-emergence, 240 h, 125 g ai/ha, Postemergence; visual injury after approximately 10 d; 0 to 100 scale where 0 is no effect and 100 is complete control; read-out: Plant response rating, Wheat
In short: as §1

[10] = tested on: giant foxtail (Setaria faberii); assay: Test A preemergence; conditions: Setaria faberi, pre-emergence, 240 h; for pest or weed control at 125 g/ha: 125 g ai/ha, Preemergence, visual injury rating after approximately 10 d, read-out: Foxtail, Giant plant response rating (0 to 100 scale, 0 is no effect, 100 is complete control); for pest or weed control at 500 g/ha: 500 g ai/ha, preemergence, visual injury rating about 10 d after treatment, 0 to 100 scale (0 no effect, 100 complete control), read-out: Foxtail, Giant plant response rating
In short: as §1

[11] = tested on: barnyardgrass (Echinochloa crus-galli); assay: Test A preemergence; conditions: Echinochloa crus-galli, pre-emergence, 240 h; for pest or weed control at 125 g/ha: 125 g ai/ha, Preemergence, visual injury rating after approximately 10 d, read-out: Barnyardgrass plant response rating (0 to 100 scale, 0 is no effect, 100 is complete control); for pest or weed control at 500 g/ha: 500 g ai/ha, preemergence, visual injury rating about 10 d after treatment, 0 to 100 scale (0 no effect, 100 complete control), read-out: Barnyardgrass plant response rating
In short: as §1

[12] = tested on: ragweed (common ragweed, Ambrosia elatior); assay: Test A preemergence; conditions: Ambrosia artemisiifolia, pre-emergence, 240 h; for pest or weed control at 125 g/ha: 125 g ai/ha, Preemergence, visual injury rating after approximately 10 d, read-out: Ragweed plant response rating (0 to 100 scale, 0 is no effect, 100 is complete control); for pest or weed control at 500 g/ha: 500 g ai/ha, preemergence, visual injury rating about 10 d after treatment, 0 to 100 scale (0 no effect, 100 complete control), read-out: Ragweed plant response rating
In short: as §1

[13] = tested on: Kochia (Kochia scoparia); assay: Test A preemergence; conditions: Bassia scoparia, pre-emergence, 240 h; for pest or weed control at 125 g/ha: 125 g ai/ha, Preemergence, visual injury rating after approximately 10 d, read-out: Kochia plant response rating (0 to 100 scale, 0 is no effect, 100 is complete control); for pest or weed control at 500 g/ha: 500 g ai/ha, preemergence, visual injury rating about 10 d after treatment, 0 to 100 scale (0 no effect, 100 complete control), read-out: Kochia plant response rating
In short: as §1

[14] = tested on: ryegrass, Italian (Italian ryegrass, Lolium multiflorum); assay: Test A preemergence; conditions: Lolium multiflorum, pre-emergence, 240 h; for pest or weed control at 125 g/ha: 125 g ai/ha, Preemergence, visual injury rating after approximately 10 d, read-out: Ryegrass, Italian plant response rating (0 to 100 scale, 0 is no effect, 100 is complete control); for pest or weed control at 500 g/ha: 500 g ai/ha, preemergence, visual injury rating about 10 d after treatment, 0 to 100 scale (0 no effect, 100 complete control), read-out: Ryegrass, Italian plant response rating
In short: as §1

[15] = tested on: pigweed (Amaranthus retroflexus); assay: Test A preemergence; conditions: Amaranthus retroflexus, pre-emergence, 240 h; for pest or weed control at 125 g/ha: 125 g ai/ha, Preemergence, visual injury rating after approximately 10 d, read-out: Pigweed plant response rating (0 to 100 scale, 0 is no effect, 100 is complete control); for pest or weed control at 500 g/ha: 500 g ai/ha, preemergence, visual injury rating about 10 d after treatment, 0 to 100 scale (0 no effect, 100 complete control), read-out: Pigweed plant response rating

CC(C)COc1cccc([C@H]2CNC(=O)[C@@H]2C(=O)Nc2cccc(F)c2F)c1 [Compound 965]
70%: pest or weed control at 125 g/ha [14]
90%: pest or weed control at 125 g/ha [10] | pest or weed control at 500 g/ha [10] | pest or weed control at 125 g/ha [11] | pest or weed control at 500 g/ha [11] | pest or weed control at 500 g/ha [14]
80%: pest or weed control at 125 g/ha [3]
30%: Corn plant response rating (crop injury, 0 = no effect, 100 = complete kill) at 125 g/ha [1] | pest or weed control at 125 g/ha [7]
40%: pest or weed control at 125 g/ha [2]
60%: pest or weed control at 500 g/ha [13]
20%: plant injury at 125 g/ha [9]
0%: pest or weed control at 125 g/ha [4] | pest or weed control at 125 g/ha [5] | pest or weed control at 125 g/ha [6] | pest or weed control at 125 g/ha [8] | pest or weed control at 125 g/ha [12] | pest or weed control at 500 g/ha [12] | pest or weed control at 125 g/ha [13] | pest or weed control at 125 g/ha [15] | pest or weed control at 500 g/ha [15]

CC(C)COc1cccc([C@H]2CNC(=O)[C@@H]2C(=O)Nc2ccc(F)cc2F)c1 [Compound 966]
90%: pest or weed control at 500 g/ha [10] | pest or weed control at 500 g/ha [11]
20%: pest or weed control at 125 g/ha [2] | pest or weed control at 125 g/ha [7] | pest or weed control at 125 g/ha [14]
30%: pest or weed control at 125 g/ha [13] | pest or weed control at 500 g/ha [13]
80%: pest or weed control at 125 g/ha [10] | pest or weed control at 125 g/ha [11]
60%: pest or weed control at 125 g/ha [3] | pest or weed control at 500 g/ha [14]
0%: Corn plant response rating (crop injury, 0 = no effect, 100 = complete kill) at 125 g/ha [1] | pest or weed control at 125 g/ha [4] | pest or weed control at 125 g/ha [5] | pest or weed control at 125 g/ha [6] | pest or weed control at 125 g/ha [8] | plant injury at 125 g/ha [9] | pest or weed control at 125 g/ha [12] | pest or weed control at 500 g/ha [12] | pest or weed control at 125 g/ha [15] | pest or weed control at 500 g/ha [15]

CN1C[C@H](c2cc(F)cc(F)c2)[C@@H](C(=O)Nc2ccc(C(F)(F)F)cc2)C1=O [Compound 968]
0%: Corn plant response rating (crop injury, 0 = no effect, 100 = complete kill) at 125 g/ha [1] | pest or weed control at 125 g/ha [2] | pest or weed control at 125 g/ha [4] | pest or weed control at 125 g/ha [5] | pest or weed control at 125 g/ha [6] | pest or weed control at 125 g/ha [7] | pest or weed control at 125 g/ha [8] | plant injury at 125 g/ha [9] | pest or weed control at 125 g/ha [12] | pest or weed control at 500 g/ha [12] | pest or weed control at 125 g/ha [13] | pest or weed control at 500 g/ha [13] | pest or weed control at 125 g/ha [14] | pest or weed control at 500 g/ha [14] | pest or weed control at 125 g/ha [15] | pest or weed control at 500 g/ha [15]
20%: pest or weed control at 125 g/ha [3] | pest or weed control at 125 g/ha [11]
60%: pest or weed control at 500 g/ha [10] | pest or weed control at 500 g/ha [11]
30%: pest or weed control at 125 g/ha [10]
